Assay results reported in publication PMC12852919 (Scientific Reports, 2025).
Where “and” joins values, the source holds several entries; their conditions need not be identical. Identical values can stand only once. Like-named read-outs stand apart in the source and are kept apart here.

Tests used:
SW-872 cells = assay: Cell cycle distribution by flow cytometry, DAPI staining; format: cell-based, human; conditions: SW-872, IC25 concentration, 18 h
Solubility in water = format: physicochemical

In the case of `O=S(=O)([O-])c1ccc(O)c(C=NNC(=S)Nc2cccc3ccccc23)c1.[Na+]` [L, sodium-4-hydroxy-3-((2-(naphthalene-1-ylcarbamothioyl)hydrazono)methyl)benzenesulfonate], the “Cell cycle distribution, S” value (SW-872 cells) is reported as 32.94, the “effect on cell cycle” value (SW-872 cells) is reported as “cell cycle arrest in the S phase” and the solubility in water (Solubility in water) is reported as 4420 µg/mL and 4400 µg/mL. It also gave a solubility in water (Solubility in water; listed as L^Cu) of 1600 µg/mL, a solubility in water (Solubility in water; listed as L^Fe) of 2500 µg/mL and a solubility in water (Solubility in water; listed as L^Mn) of 3200 µg/mL. For the same compound, the solubility in water (Solubility in water; listed as L^Ni) was 1400 µg/mL and the solubility in water (Solubility in water; listed as L^Zn) was 2400 µg/mL.
